We go through two molecules from US20180127700A1, “Cell Culture Substrate for Rapid Release and Re-Plating” (priority 2015, published 2018).

The test has as its system NIH/3T3 mouse embryonic fibroblast cells. The test can be described thus: Tissue module release/detachment from shape-memory pNIPAAm polymer microbeams upon thermally initiated swelling. It is filed as cell-based. More on the design: tissue module detachment after microbeam swelling (in words): dose or concentration left out as unconfirmed. The settings on record: for effect of treatment on tissue module detachment (in words): all strains tested, pNIPAAm microbeams. On the procedure:
NIH/3T3 mouse embryonic fibroblast cells were cultured in 10% NCS growth medium containing 1% antibiotics (10,000 units/ml penicillin and 10,000 μg/ml streptomycin stock solution) at 37° C. in a humidified atmosphere of 5% CO2. To prepare tissue modules, trypsinized fibroblasts were seeded onto the fabricated shape-memory polymer arrays at a density of 500-750 cells/mm^2 and cultured at 37° C. until confluence (24-48 h). Studies of release from low cell density (100 cells/mm^2) were cultured for 24 h.
Rapid release of tissue modules was induced by thermally initiated swelling of the shape-memory polymer beams. 2 ml of cold PBS (4-10° C.) was introduced (1 ml at a time) into the seeded dish containing 2.5 ml of 37° C. medium resulting in cooling to about 27° C. Cell release was monitored via time-lapse image acquisition on a microscope for at least 70 s.
The mode of cell release from shape-memory polymer surfaces was examined by separately treating seeded samples with agents that modulate metabolism, contractility or adhesion.
To investigate the effect of surface strain on attached cells, the concentration of the network crosslinker (MBAm) in the prepolymer solution was varied from 1 to 4% before MIMIC processing. The one-dimensional width-wise strain in each microbeam was calculated from phase contrast micrographs as follows: […]
where ε is the Cauchy strain, Wcollapsed is the width of the polymer beam in the collapsed state and Wswollen is the width of the polymer beam in the swollen state. Cell detachment was calculated as the percent of cells released from the microbeams within 3 min after thermal stimulation.

Take `O=C(CCSSCCC(=O)ON1C(=O)CC(S(=O)(=O)O)C1=O)ON1C(=O)CC(S(=O)(=O)O)C1=O` (stereo not shown) [DTSSP, 3,3′-dithiobissulfosuccinimidylpropionate]: the “effect of treatment on tissue module detachment (in words)” value is on record as “prevented tissue module detachment”. The “cell release after initiating shape change (in words)” value (2 mM DTSSP for 30 min prior to release, within 5 min of initiating shape change) is “significant cell release was not observed”.

For the molecule `C[C@@H](N)[C@H]1CC[C@H](C(=O)Nc2ccncc2)CC1` [Y-27632], the “effect of treatment on tissue module detachment (in words)” value is listed as “prevented tissue module detachment”. Moreover, the “tissue module detachment after microbeam swelling (in words)” value (Y-27632 for 30 min prior to release, large strains (ε>0.25)) was “primarily remained attached”.
